# Structures can show the parent of a compound that is named as a salt.
# System: HiBiT-HSD17β13 fusion protein (N-terminal HiBiT-tagged HSD17β13 isoform D) in Huh7 HiBiT-HSD17β13 OE cells
# Assay: Whole-cell Huh7-HSD17B13 HiBiT assay (degrader potency and maximal efficacy, luminescence readout)
# Format: cell-based, human
# Conditions: 24 hour incubation, geometric mean, * = geometric mean for all forms tested (parent and salt forms); for DC50: read-out: Huh7_HIBIT-HSD17β13_DC50 GMean DC50; for Huh7_HIBIT-HSD17β13_DC50 GMean Asymptote Maximum: max. concentration 1 μM
# Procedure, shortened: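 Huh7 cells stably overexpressing N-terminal HiBiT-tagged HSD17β13 isoform D, clone matched to primary hepatocyte expression, were exposed to an 11-point, 1 in 3.162 dilution series (top 1 μM final) for 24 h at 37° C. Lytic HiBiT luminescence was normalised to DMSO and parental-cell controls; DC50 from four-parameter logistic fit, with CellTiter-Glo counter screen.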
Structure (SMILES),DC50,Huh7_HIBIT-HSD17β13_DC50 GMean Asymptote Maximum
"Cn1c(=O)n(C2CCC(=O)NC2=O)c2ccc(CCCCCC(=O)N3CCN(c4ccc5cn([C@H]6CC[C@H](CNC(=O)c7cc(F)c(O)c(F)c7F)CC6)nc5c4)CC3)cc21 (mixture of isomers) [Example 39, N-{[(1r,4r)-4-{6-[4-(6-{1-[(3RS)-2,6-dioxopiperidin-3-yl]-3-methyl-2-oxo-2,3-dihydro-1H-benzimidazol-5-yl}hexanoyl)piperazin-1-yl]-2H-indazol-2-yl}cyclohexyl]methyl}-2,3,5-trifluoro-4-hydroxybenzamide, trifluoroacetate salt]",1.1 nM,86%
"Cn1c(=O)n(C2CCC(=O)NC2=O)c2ccc(CCCN3Cc4cc(-c5ccc6cn([C@H]7CC[C@H](CNC(=O)c8cc(F)c(O)c(F)c8F)CC7)nc6c5)cnc4C3)cc21 (mixture of isomers) [Example 116, N-{[(1r,4r)-4-{6-[6-(3-{1-[(3RS)-2,6-dioxopiperidin-3-yl]-3-methyl-2-oxo-2,3-dihydro-1H-benzimidazol-5-yl}propyl)-6,7-dihydro-5H-pyrrolo[3,4-b]pyridin-3-yl]-2H-indazol-2-yl}cyclohexyl]methyl}-2,3,5-trifluoro-4-hydroxybenzamide, trifluoroacetate salt]",0.2 nM,88%
"Cn1c(=O)n(C2CCC(=O)NC2=O)c2ccc(CCN3CCOC4(C3)CN(c3ccc5cn([C@H]6CC[C@H](CNC(=O)c7cc(F)c(O)c(F)c7F)CC6)nc5c3)C4)cc21 (mixture of isomers) [Example 117, N-{[(1r,4r)-4-{6-[8-(2-{1-[(3RS)-2,6-dioxopiperidin-3-yl]-3-methyl-2-oxo-2,3-dihydro-1H-benzimidazol-5-yl}ethyl)-5-oxa-2,8-diazaspiro[3.5]nonan-2-yl]-2H-indazol-2-yl}cyclohexyl]methyl}-2,3,5-trifluoro-4-hydroxybenzamide, trifluoroacetate salt]",0.95 nM,79%
"Cc1ccc(C(=O)N2CCC(CCCN3CCN(c4ccc5cn([C@H]6CC[C@H](CNC(=O)c7cc(F)c(O)c(F)c7F)CC6)nc5c4)CC3)CC2)cc1N1CCC(=O)NC1=O [Example 40, N-{[(1r,4r)-4-{6-[4-(3-{1-[3-(2,4-dioxo-1,3-diazinan-1-yl)-4-methylbenzoyl]piperidin-4-yl}propyl)piperazin-1-yl]-2H-indazol-2-yl}cyclohexyl]methyl}-2,3,5-trifluoro-4-hydroxybenzamide, trifluoroacetate salt]",4.1 nM,74%
"Cn1c(=O)n(C2CCC(=O)NC2=O)c2ccc(CCN3CCC(Cc4ccc5cn([C@H]6CC[C@H](CNC(=O)c7cc(F)c(O)c(F)c7F)CC6)nc5c4)C(F)(F)C3)cc21 (mixture of isomers) [Example 64, N-{[(1r,4r)-4-(6-{[1-(2-{1-[(3RS)-2,6-dioxopiperidin-3-yl]-3-methyl-2-oxo-2,3-dihydro-1H-benzimidazol-5-yl}ethyl)-3,3-difluoropiperidin-4-yl]methyl}-2H-indazol-2-yl)cyclohexyl]methyl}-2,3,5-trifluoro-4-hydroxybenzamide, trifluoroacetate salt]",0.51 nM,85%
"Cn1c(=O)n(C2CCC(=O)NC2=O)c2ccc(CCCN3Cc4cnc(-c5ccc6cn([C@H]7CC[C@H](CNC(=O)c8cc(F)c(O)c(F)c8F)CC7)nc6c5)cc4C3)cc21 (mixture of isomers) [Example 119, N-{[(1r,4r)-4-{6-[2-(3-{1-[(3RS)-2,6-dioxopiperidin-3-yl]-3-methyl-2-oxo-2,3-dihydro-1H-benzimidazol-5-yl}propyl)-2,3-dihydro-1H-pyrrolo[3,4-c]pyridin-6-yl]-2H-indazol-2-yl}cyclohexyl]methyl}-2,3,5-trifluoro-4-hydroxybenzamide, formate salt]",0.28 nM,75%
"O=C1CCN(c2cnn3cc(CCCN4CCN(c5ncc(-c6ccc7cn([C@H]8CC[C@H](CNC(=O)c9cc(F)c(O)c(F)c9F)CC8)nc7c6)cn5)CC4)ccc23)C(=O)N1 [Example 53, N-{[(1r,4r)-4-{6-[2-(4-{3-[3-(2,4-dioxo-1,3-diazinan-1-yl)pyrazolo[1,5-a]pyridin-6-yl]propyl}piperazin-1-yl)pyrimidin-5-yl]-2H-indazol-2-yl}cyclohexyl]methyl}-2,3,5-trifluoro-4-hydroxybenzamide, trifluoroacetate salt]",0.78 nM,77%
"Cc1ccc(C(=O)N2CCC3(CC2)CC(N2CCN(c4cnc(-c5ccc6cn([C@H]7CC[C@H](CNC(=O)c8cc(F)c(O)c(F)c8F)CC7)nc6c5)cn4)CC2)C3)cc1N1CCC(=O)NC1=O [Example 72, N-{[(1r,4r)-4-{6-[5-(4-{7-[3-(2,4-dioxo-1,3-diazinan-1-yl)-4-methylbenzoyl]-7-azaspiro[3.5]nonan-2-yl}piperazin-1-yl)pyrazin-2-yl]-2H-indazol-2-yl}cyclohexyl]methyl}-2,3,5-trifluoro-4-hydroxybenzamide, trifluoroacetate salt]",1.6 nM,78%
"O=C1CCN(c2cnn3cc(CN4CCN(c5cnc(-c6ccc7cn([C@H]8CC[C@H](CNC(=O)c9cc(F)c(O)c(F)c9F)CC8)nc7c6)cn5)CC4)ccc23)C(=O)N1 [Example 70, N-{[(1r,4r)-4-{6-[5-(4-{[3-(2,4-dioxo-1,3-diazinan-1-yl)pyrazolo[1,5-a]pyridin-6-yl]methyl}piperazin-1-yl)pyrazin-2-yl]-2H-indazol-2-yl}cyclohexyl]methyl}-2,3,5-trifluoro-4-hydroxybenzamide, trifluoroacetate salt]",1.1 nM,85%

# — patent US20240238425A1, “HSD17B13 Inhibitors and/or Degraders” (Pfizer Inc., priority 2022, published 2024)
